From US10597388B2, “Pyridazinone herbicides” (FMC CORPORATION, priority 2014, dated 2020)

Key:
Type in all cases: in vivo
[1] = test system: velvetleaf (Abutilon theophrasti); experiment: Test E greenhouse herbicide test, pre- and postemergence; details: Preemergence
From the text: (§1) Seeds of plant species selected from corn (Zea mays), soybean (Glycine max), velvetleaf (Abutilon theophrasti), lambsquarters (Chenopodium album), wild poinsettia (Euphorbia heterophylla), pigweed, palmer (palmer pigweed, Amaranthus palmeri), waterhemp (common waterhemp, Amaranthus rudis), surinam grass (Brachiaria decumbens), crabgrass, large (large crabgrass, Digitaria sanguinalis), crabgrass, Brazilian (Brazilian crabgrass, Digitaria horizontalis), panicum, fall (fall panicum, Panicum dichotomiflorum), foxtail, giant (giant foxtail, Setaria faberii), foxtail, green (green foxtail, Setaria viridis), goosegrass (Eleusine indica), johnsongrass (Sorghum halepense), ragweed (common ragweed, Ambrosia elatior), barnyardgrass (Echinochloa crus-galli), sandbur (southem sandbur, Cenchrus echinatus), arrowleaf sida (Sida rhombifolia), Italian ryegrass (Lolium multiflorum), dayflower (Virginia (VA) dayflower, Commelina virginica), field bindweed (Convolvulus arvensis), momingglory (Ipomoea coccinea), nightshade (eastern black nightshade, Solanum ptycanthum), kochia (Kochia scoparia), nutsedge, yellow (yellow nutsedge, Cyperus esculentus), horseweed (Conyza canadensis), and beggarticks (hairy beggarticks, Bidens pilosa), were planted into a silt loam soil and treated preemergence with test chemicals formulated in a non-phytotoxic solvent mixture which included a surfactant.
(§2) At the same time, plants from these crop and weed species and also waterhemp_RES1, (ALS & Triazine resistant common waterhemp, Amaranthus rudis), and waterhemp_RES2, (ALS & HPPD resistant common waterhemp, Amaranthus rudis) were planted in pots containing Redi-Earth® planting medium (Scotts Company, 14111 Scottslawn Road, Marysville, Ohio 43041) comprising spaghnum peat moss, vermiculite, wetting agent and starter nutrients were treated with postemergence applications of test chemicals formulated in the same manner. Plants ranged in height from 2 to 18 cm for postemergence treatments (1- to 4-leaf stage). Treated plants and controls were maintained in a greenhouse for 14 to 21 d, after which time all species were compared to controls and visually evaluated. Plant response ratings, summarized in Table E, are based on a scale of 0 to 100 where 0 is no effect and 100 is complete control. A dash (-) response means no test result.

[2] = test system: horseweed (Conyza canadensis); experiment: as above
From the text: as §1, §2

[3] = test system: johnsongrass (Sorghum halepense); experiment: as above; details: Preemergence
From the text: as §1, §2

[4] = test system: pigweed, palmer (palmer pigweed, Amaranthus palmeri); experiment: as above
From the text: as §1, §2

[5] = test system: kochia (Kochia scoparia); experiment: as above
From the text: as §1, §2

[6] = test system: soybean (Glycine max); experiment: as above
From the text: as §1, §2

[7] = test system: momingglory (Ipomoea coccinea); experiment: as above; details: Preemergence
From the text: as §1, §2

[8] = test system: foxtail, green (green foxtail, Setaria viridis); experiment: as above; details: Preemergence
From the text: as §1, §2

[9] = test system: arrowleaf sida (Sida rhombifolia); experiment: as above
From the text: as §1, §2

[10] = test system: dayflower (Virginia (VA) dayflower, Commelina virginica); experiment: as above
From the text: as §1, §2

[11] = test system: foxtail, giant (giant foxtail, Setaria faberii); experiment: as above; details: Preemergence
From the text: as §1, §2

[12] = test system: crabgrass, large (large crabgrass, Digitaria sanguinalis); experiment: as above; details: Preemergence
From the text: as §1, §2

[13] = test system: Italian ryegrass (Lolium multiflorum); experiment: as above
From the text: as §1, §2

[14] = test system: waterhemp_RES2 (ALS & HPPD resistant common waterhemp, Amaranthus rudis); experiment: Test E greenhouse herbicide test, postemergence
Experimental: as §2

[15] = test system: waterhemp_RES1 (ALS & Triazine resistant common waterhemp, Amaranthus rudis); experiment: Test E greenhouse herbicide test, postemergence
Experimental: as §2

[16] = 62 g ai/ha, scale 0 to 100 (0 no effect, 100 complete control)
[17] = 125 g ai/ha, scale 0 to 100 (0 no effect, 100 complete control)
[18] = 31 g ai/ha, scale 0 to 100, 0 no effect, 100 complete control
[19] = 62 g ai/ha, Preemergence, scale 0 to 100 (0 no effect, 100 complete control)
[20] = Preemergence, 31 g ai/ha, scale 0 to 100, 0 no effect, 100 complete control
[21] = Preemergence, 125 g ai/ha, visual, scale 0 no effect to 100 complete control
[22] = 125 g ai/ha, visual, scale 0 no effect to 100 complete control
[23] = 125 g ai/ha, Preemergence, scale 0 to 100 (0 no effect, 100 complete control)
[24] = 62 g ai/ha, Postemergence, scale 0 to 100 (0 no effect, 100 complete control)
[25] = 125 g ai/ha, Postemergence, scale 0 to 100 (0 no effect, 100 complete control)
[26] = Postemergence, 16 g ai/ha, visual, scale 0 no effect to 100 complete control
[27] = Postemergence, 31 g ai/ha, visual, scale 0 no effect to 100 complete control
[28] = 16 g ai/ha, visual, scale 0 no effect to 100 complete control
[29] = 31 g ai/ha, visual, scale 0 no effect to 100 complete control
[30] = 250 g ai/ha, Postemergence, scale 0 to 100 (0 no effect, 100 complete control)
[31] = 250 g ai/ha, scale 0 to 100 (0 no effect, 100 complete control)

With Cc1cc(C)c2ccccc2c1-c1c(O)c(C)nn(C)c1=O [Compound 21] the “Plant response rating, Velvetleaf” value [1, 16] was 90, the “Plant response rating, Velvetleaf” value [1, 17] was 90 and the “Plant response rating, Velvetleaf” value [1, 18] was 80. The “Plant response rating, Horseweed” value [2, 19] was 100, the “Plant response rating, Horseweed” value [2, 20] was 100 and the “Plant response rating, Horseweed” value [2, 21] was 100. The “Plant response rating, Johnsongrass” value [3, 16] was 20, the “Plant response rating, Johnsongrass” value [3, 22] was 60 and the “Plant response rating, Pigweed, Palmer” value [4, 19] was 70. The “Plant response rating, Pigweed, Palmer” value [4, 23] was 98, the “Plant response rating, Pigweed, Palmer” value [4, 20] was 65 and the “Plant response rating, Kochia” value [5, 19] was 0. For the same compound, the “Plant response rating, Kochia” value [5, 20] was 0, the “Plant response rating, Kochia” value [5, 21] was 65 and the “Plant response rating, Soybean” value [6, 19] was 35. For the same compound, the “Plant response rating, Soybean” value [6, 23] was 35, the “Plant response rating, Soybean” value [6, 20] was 35 and the “Plant response rating, Morningglory” value [7, 16] was 98. For the same compound, the “Plant response rating, Morningglory” value [7, 17] was 100, the “Plant response rating, Morningglory” value [7, 18] was 90 and the “Plant response rating, Foxtail, Green” value [8, 16] was 100. For the same compound, the “Plant response rating, Foxtail, Green” value [8, 18] was 95, the “Plant response rating, Foxtail, Green” value [8, 22] was 100 and the “Plant response rating, Arrowleaf Sida” value [9, 19] was 0. The “Plant response rating, Arrowleaf Sida” value [9, 20] was 0, the “Plant response rating, Arrowleaf Sida” value [9, 21] was 50 and the “Plant response rating, Dayflower, VA” value [10, 19] was 60. The “Plant response rating, Dayflower, VA” value [10, 20] was 80, the “Plant response rating, Dayflower, VA” value [10, 21] was 80 and the “Plant response rating, Foxtail, Giant” value [11, 16] was 98. For the same compound, the “Plant response rating, Foxtail, Giant” value [11, 18] was 95, the “Plant response rating, Foxtail, Giant” value [11, 22] was 100 and the “Plant response rating, Crabgrass, Large” value [12, 16] was 85. The “Plant response rating, Crabgrass, Large” value [12, 18] was 65, the “Plant response rating, Crabgrass, Large” value [12, 22] was 100 and the “Plant response rating, Ryegrass, Italian” value [13, 19] was 100. The “Plant response rating, Ryegrass, Italian” value [13, 23] was 100 and the “Plant response rating, Ryegrass, Italian” value [13, 20] was 100.
In the case of CC(=O)Oc1c(C)nn(C)c(=O)c1-c1c(C)cc(C)c2ccccc12 [Compound 99], the “Plant response rating, Horseweed” value [2, 24] is reported as 60, the “Plant response rating, Horseweed” value [2, 25] is reported as 75 and the “Plant response rating, Horseweed” value [2, 26] is reported as 40. The “Plant response rating, Horseweed” value [2, 27] was 50, the “Plant response rating, Pigweed, Palmer” value [4, 24] was 30 and the “Plant response rating, Pigweed, Palmer” value [4, 25] was 50. For the same compound, the “Plant response rating, Pigweed, Palmer” value [4, 26] was 5, the “Plant response rating, Pigweed, Palmer” value [4, 27] was 10 and the “Plant response rating, Kochia” value [5, 24] was 60. For the same compound, the “Plant response rating, Kochia” value [5, 25] was 70, the “Plant response rating, Kochia” value [5, 26] was 55 and the “Plant response rating, Kochia” value [5, 27] was 50. The “Plant response rating, Soybean” value [6, 25] was 30, the “Plant response rating, Soybean” value [6, 26] was 0 and the “Plant response rating, Soybean” value [6, 27] was 0. For the same compound, the “Plant response rating, Arrowleaf Sida” value [9, 24] was 50, the “Plant response rating, Arrowleaf Sida” value [9, 25] was 60 and the “Plant response rating, Arrowleaf Sida” value [9, 26] was 10. The “Plant response rating, Arrowleaf Sida” value [9, 27] was 30, the “Plant response rating, Dayflower, VA” value [10, 24] was 70 and the “Plant response rating, Dayflower, VA” value [10, 25] was 75. For the same compound, the “Plant response rating, Dayflower, VA” value [10, 26] was 40, the “Plant response rating, Dayflower, VA” value [10, 27] was 60 and the “Plant response rating, Ryegrass, Italian” value [13, 24] was 70. The “Plant response rating, Ryegrass, Italian” value [13, 25] was 80, the “Plant response rating, Ryegrass, Italian” value [13, 26] was 40 and the “Plant response rating, Ryegrass, Italian” value [13, 27] was 50. For the same compound, the “Plant response rating, Waterhemp_RES2” value [14, 28] was 50, the “Plant response rating, Waterhemp_RES2” value [14, 29] was 50 and the “Plant response rating, Waterhemp_RES2” value [14, 17] was 60. The “Plant response rating, Waterhemp_RES1” value [15, 28] was 50, the “Plant response rating, Waterhemp_RES1” value [15, 29] was 50 and the “Plant response rating, Waterhemp_RES1” value [15, 17] was 75.
With Cc1nn(C)c(=O)c(-c2cccc3ccc(Br)cc23)c1O [Compound 126] the “Plant response rating, Horseweed” value [2, 24] was 75, the “Plant response rating, Horseweed” value [2, 25] was 85 and the “Plant response rating, Horseweed” value [2, 30] was 80. The “Plant response rating, Horseweed” value [2, 27] was 70, the “Plant response rating, Pigweed, Palmer” value [4, 24] was 50 and the “Plant response rating, Pigweed, Palmer” value [4, 25] was 50. For the same compound, the “Plant response rating, Pigweed, Palmer” value [4, 30] was 80, the “Plant response rating, Pigweed, Palmer” value [4, 27] was 40 and the “Plant response rating, Kochia” value [5, 24] was 100. For the same compound, the “Plant response rating, Kochia” value [5, 25] was 100, the “Plant response rating, Kochia” value [5, 30] was 100 and the “Plant response rating, Kochia” value [5, 27] was 100. The “Plant response rating, Soybean” value [6, 25] was 40, the “Plant response rating, Soybean” value [6, 30] was 30 and the “Plant response rating, Soybean” value [6, 27] was 10. The “Plant response rating, Arrowleaf Sida” value [9, 24] was 80, the “Plant response rating, Arrowleaf Sida” value [9, 25] was 100 and the “Plant response rating, Arrowleaf Sida” value [9, 30] was 85. The “Plant response rating, Arrowleaf Sida” value [9, 27] was 75, the “Plant response rating, Dayflower, VA” value [10, 24] was 20 and the “Plant response rating, Dayflower, VA” value [10, 25] was 50. For the same compound, the “Plant response rating, Dayflower, VA” value [10, 30] was 50, the “Plant response rating, Dayflower, VA” value [10, 27] was 0 and the “Plant response rating, Ryegrass, Italian” value [13, 24] was 80. For the same compound, the “Plant response rating, Ryegrass, Italian” value [13, 25] was 85, the “Plant response rating, Ryegrass, Italian” value [13, 30] was 90 and the “Plant response rating, Ryegrass, Italian” value [13, 27] was 70. For the same compound, the “Plant response rating, Waterhemp_RES2” value [14, 29] was 55, the “Plant response rating, Waterhemp_RES2” value [14, 17] was 70 and the “Plant response rating, Waterhemp_RES2” value [14, 31] was 85. For the same compound, the “Plant response rating, Waterhemp_RES1” value [15, 29] was 75, the “Plant response rating, Waterhemp_RES1” value [15, 17] was 90 and the “Plant response rating, Waterhemp_RES1” value [15, 31] was 100.
